“And” between values parts separate entries of the source, which are not always exact repeats. Identical values can stand only once. Like-named read-outs stand apart in the source and are kept apart here.
Tests used:
S. aureus UC 9213 = assay: Murine Assay procedure: in vivo antimicrobial activity, survival of infected mice (S. aureus UC 9213); set-up: species or system Staphylococcus aureus (infected female mice); conditions: dosed 1 h and 5 h after i.p. infection, survival daily for six days; for ED50: Staphylococcus aureus, UC9213, 144 h, oral, probit
Description: (§1) Antimicrobial activity was tested in vivo using the Murine Assay procedure. Groups of female mice (six mice of 18-20 grams each) were injected intraperitoneally with bacteria which were thawed just prior to use and suspended in brain heart infusion with 4% brewers yeast (Staphylococcus aureus) or brain heart infusion (Streptococcus species). Antibiotic treatment at six dose levels per drug was administered one hour and five hours after affection by either oral intubation or subcutaneous routes. Survival was observed daily for six days. ED50 values based on mortality ratios were calculated using probit analysis. The subject compounds were compared against well-known antimicrobial as controls.

S. aureus UC 6685 = assay: Murine Assay procedure: in vivo antimicrobial activity, survival of infected mice (S. aureus UC 6685); set-up: species or system Staphylococcus aureus (infected female mice); conditions: Staphylococcus aureus
Description: as §1

microbial infections = assay: treatment of microbial infections (relative activity, test not given)
S. pyogenes UC 152 = assay: Murine Assay procedure: in vivo antimicrobial activity, survival of infected mice (S. pyogenes UC 152); set-up: species or system S. pyogenes (infected female mice); conditions: Streptococcus pyogenes, UC152, 144 h, oral, dosed 1 h and 5 h after i.p. infection, survival daily for six days
S. aureus UC 9271 = assay: Murine Assay procedure: in vivo antimicrobial activity, survival of infected mice (S. aureus UC 9271); set-up: species or system Staphylococcus aureus (infected female mice); conditions: Staphylococcus aureus
Description: as §1

Q: How did the ED50 (S. aureus UC 9213) turn out when `CC(=O)CCC(=O)N1CCN(c2ccc(N3CC(CNC(C)=O)OC3=O)cc2F)CC1` (racemic) [Example 10, (±)-N-[[3-[4-[4-(1,4-Dioxopentyl)-1-piperazinyl]-3-fluorophenyl]-2-oxo-5-oxazolidinyl]methyl)Acetamide] was run?
A: 9.4 mg/kg

Q: `O=C(O)c1cn(C2CC2)c2cc(N3CCNCC3)c(F)cc2c1=O` [Ciprofloxacin, reference compound] was tested. Which ED50 (S. aureus UC 6685; UC6685, sc, 144 h, read-out: Control, ED50, SC) did it give?
A: 6.6 mg/kg

Q: Which results are given for `COC(=O)N1CCN(c2ccc(N3CC(CNC(C)=O)OC3=O)cc2F)CC1` (stereo not shown) [Example 1, 4-(4-(5-((Acetylamino)methyl)-2-oxo-3-oxazolidinyl)-2-fluorophenyl)-1-piperazinecarboxylic acid, methyl ester]?
A: activity relative to the Formula I compounds (microbial infections): most active; ED50 (S. pyogenes UC 152): 2.3 mg/kg; ED50 (S. aureus UC 9213): 3.8 mg/kg; ED50 (S. aureus UC 6685; UC6685, 144 h, S. aureus UC 6685, oral, dosed 1 h and 5 h after i.p. infection, survival daily for six days, read-out: ED50, PO): 4 mg/kg; ED50 (S. aureus UC 9271; UC9271, 144 h, S. aureus UC 9271, oral, dosed 1 h and 5 h after i.p. infection, survival daily for six days, read-out: ED50, PO): 4 mg/kg

Q: Which ED50 (S. aureus UC 9213) does the source give for `COC(=O)N1CCN(c2ccc(N3CC(CNC(C)=O)OC3=O)cc2)CC1` (stereo not shown) [Example 3, 4-(4-(5-((Acetylamino)methyl)-2-oxo-3-oxazolidinyl)phenyl)-1-piperazinecarboxylic acid, methyl ester] here?
A: 10.4 mg/kg

Q: For `CC(=O)NCC1CN(c2ccc(N3CCN(CCC#N)CC3)c(F)c2)C(=O)O1` (stereo not shown) [Example 5, N-((3-(4-(3-Fluoro-4-(4-(2-Cyanoethyl)-1-piperazinyl))phenyl)-2-oxo-5-oxazolidinyl)methyl)-acetamide], which ED50 (S. aureus UC 9213) is on record?
A: 10 mg/kg

Q: Which ED50 (S. aureus UC 9213) does the source give for `CC(=O)NCC1CN(c2ccc(N3CCN(C(=O)OCCO)CC3)c(F)c2)C(=O)O1` (stereo not shown) [Example 6, 4-(4-(5-((acetylamino)methyl)-2-oxo-3-oxazolidinyl)-2-fluorophenyl)-1-piperazinecarboxylic acid, 2-hydroxyethyl ester] here?
A: 12 mg/kg

Q: How did the ED50 (S. aureus UC 9213) turn out when `CC(=O)NCC1CN(c2ccc(N3CCN(C(=O)c4ccccc4)CC3)c(F)c2)C(=O)O1` (stereo not shown) [Example 7, N-((3-(4-(3-Fluoro-4-((benzoyl)-1-piperazinyl))phenyl)-2-oxo-5-oxazolidinyl)methyl)-acetamide] was run?
A: 12 mg/kg

Q: With `CC(=O)NCC1CN(c2ccc(N3CCN(CC#N)CC3)c(F)c2)C(=O)O1` (stereo not shown) [Example 9] as the compound, how does the “activity relative to the Formula I compounds” value (microbial infections) read?
A: most active

Q: Which ED50 (S. aureus UC 9213) does the source give for `COCCN1CCN(c2ccc(N3C[C@H](CNC(C)=O)OC3=O)cc2F)CC1` [Example 36, (S)-N-[[3-[3-fluoro-4-[4-(2-methoxyethyl)-1-piperazinyl]phenyl]-2-oxo-5-oxazolidinyl]methyl]acetamide] here?
A: 7.9 mg/kg

Q: With `COCCN1CCN(c2c(F)cc(N3C[C@H](CNC(C)=O)OC3=O)cc2F)CC1` [Example 37, (S)-N-[[3-[3,5-difluoro-4-[4-(2-methoxyethyl)-1-piperazinyl]phenyl]-2-oxo-5-oxazolidinyl]methyl]acetamide] as the compound, how does the ED50 (S. aureus UC 9213) read?
A: 12.6 mg/kg

Q: What does the source list for `CN[C@H](CC(C)C)C(=O)N[C@H]1C(=O)N[C@@H](CC(N)=O)C(=O)N[C@H]2C(=O)N[C@H]3C(=O)N[C@H](C(=O)N[C@H](C(=O)O)c4cc(O)cc(O)c4-c4cc3ccc4O)[C@H](O)c3ccc(c(Cl)c3)Oc3cc2cc(c3O[C@@H]2O[C@H](CO)[C@@H](O)[C@H](O)[C@H]2O[C@H]2C[C@](C)(N)[C@H](O)[C@H](C)O2)Oc2ccc(cc2Cl)[C@H]1O` [Vancomycin, reference compound]?
A: Control, ED50, SC (S. aureus UC 9213; control antibiotic, subcutaneous, 8640 min): 1.8 mg/kg and 1.9 mg/kg; ED50 (S. aureus UC 9271; UC9271, sc, 144 h, read-out: Control, ED50, SC): 5.9 mg/kg

From US5700799A, “Oxazolidinone antimicrobials containing substituted diazine moieties” (Pharmacia & Upjohn Company, priority 1996, dated 1997)
